# From patent US6939850B2, “Altered human interleukin-1β convertase (ICE), NEDD-2, and C. elegans ced-3 polypeptides and uses therefor” (Massachusetts Institute of Technology, priority 1992, dated 2005)
# Tested on: lumbar motoneurons
# Experiment: Naturally occurring lumbar motoneuron cell death in vivo
# Design: species or system chick
# Method: In the first model, embryos were treated with a single dose of an ICE inhibitor or control protease inhibitor on embryonic day 8 (E8), the time of maximum naturally occurring motoneuron cell death (Hamburger et al., J. Morph. 88:49-92 (1951)). Embryos treated in vivo with the peptide inhibitors appeared to develop normally and there were no gross abnormalties. […] 24 hours after treatment there is a similar reduction in the number of pyknotic cells and a significant increase in the number of healthy motoneurons (Table 6B). […] The ability of ICE inhibitors to block the naturally occurring cell death of interdigital cells in the developing limb was also studied. These cells undergo PCD as a means of sculpting the digits in many vertebrates. When embryos were treated with either ICE inhibitor on embryonic days, E6 and E7, there was a substantial reduction in the number of pyknotic cells between the digits of the hindlimb (FIG. 14).
# Peptides. Two peptide inhibitors of ICE, Acetyl-Tyr-Val-Ala-Asp-aldehyde (Ac-YVAD-CHO) and Acetyl-Tyr-Val-Ala-Asp-chloromethylketone (Ac-YVAD-CMK) and two control peptide inhibitors, Acetyl-Leu-Leu-Arg-aldehyde (Ac-LLR-CHO; Leupeptin) and n-tosyl-Lys-chloromethyl-ketone (Tos-Lys-CMK) were synthesized by Bachem Biosciences (King of Prussia, Pa.) and shown by thin layer chromatography and HPLC to be greater than 98% pure. […] Methods for administration of peptides to examine effects on naturally occurring motoneuron cell death in vivo. Although cell death of lumbar motoneurons occurs between E6 and E12, the peak period of death (i.e., the greatest number of pyknotic cells) occurs on E8 (Oppenheim et al., J Comp. Neurol. 177:87-112 (1978)). For these experiments, embryos were given a single administration of an agent on E8 0 hr and sacrificed 15 hours later. […] Ac-YVAD-CMK and Tos-Lys-CMK were administered in a solution of DMSO/BSA, whereas Ac-YVAD-CHO and leupeptin (Sigma) were in BSA alone. The solutions (50-100 μl) were dropped onto the highly vascularized chorioallantoic membrane through a window in the shell. The control groups included both DMSO and BSA or vehicle alone. Embryos were killed and staged by the Hamburger-Hamilton series (Hamburger and Hamilton, J. Morph. 88:49-92 (1951)). The thoraco-lumbar spinal cord was dissected, fixed in Camoys or Bouins fixative, processed for paraffin histology, serially sectioned (10-12 μm) and stained with either thionin or hematoxylin and eosin. Pyknotic motoneurons were identified based on criteria previously described (Chu-Wang and Oppenheim, J. Comp. Neurol. 177:33-58 (1978); Clarke and Oppenheim In Methods in Cell Biology Series; Cell Death; eds: Schwartz and Osborne. Academic Press. New York, N.Y. In press.) and were counted in every 10th or 20th section through the entire lumbar enlargement. The total number of pyknotic cells were then estimated by multiplying these values by 10 or 20. All cell counts were performed by individuals blinded with regard to drug treatment of the embryos. Methods for limb bud removal experiments. A unilateral limb bud removal was performed on E2 as described previously (Oppenheim et al., J. Comp. Neurol. 177:87-112 (1978)). Because induced cell death following limb removal begins on E5 (before that there is no difference in the number of motoneurons between the operated or unoperated sides) embryos were given one treatment of Ac-YVAD-CHO (40 μg) or BSA (control) at E5-0 hr and another at E5-12 hours (total peptide administered was 80 μg). Animals were killed at E6-0 hr. Methods were the same as described above except the section thickness was 6-8 μm (see Method for Administration of Peptides, above). Methods for limb bud interdigital regions. […]
# [1] = 24 hours post treatment, mean ±SD
substance,measurement,setting,value
Acetyl-Tyr-Val-Ala-Asp-aldehyde [Ac-YVAD-CHO],Pyknotic Lumbar Motoneurons on E8,"15 hours post treatment, single administration of 400 μg on E8, mean ±SD",146 ± 35
same,Healthy Motoneurons (lumbar) on E9,[1],"15,680 ± 684"
same,Pyknotic Motoneurons (lumbar) on E9,[1],150 ± 30
same,effectiveness for inhibition of motoneuron PCD in vivo,FIG. 13,dose dependent
